Experimental data: US9963463B2, “Urea-substituted indanes as P38 map kinase inhibitors” (TORRENT PHARMACEUTICALS LIMITED, priority 2014, dated 2018)

Target: T1, purified recombinant human p38 alpha MAPK (Homo sapiens, UniProt Q16539)
T1 construct: purchased Millipore, USA
Test: Inhibition of p38 alpha MAPK activity, TR-FRET kinase assay
Type: biochemical
Conditions: for inhibition at 1 µM / inhibition at 0.1 µM: read-out: P38α Inhibition; for inhibition at 0.1 µM: Concentration 100 nM
Procedure: Inhibition of p38 Alpha MAPK Activity: Time-Resolved Fluorescence Resonance Energy Transfer Kinase Standard Assay (TR-FRET Assay)
Compounds of present invention at various concentrations were premixed with DMSO. The experiment was initiated by mixing 0.5%-1.0% DMSO as vehicle/compounds with purified recombinant human p38 alpha MAPK (Millipore, USA) in the wells and 15 min incubation at room temperature. Thereafter, 30 nM of Biotinylated GST-ATF2 (Activation transcription Factor2) and 100 μM of ATP were added in to the wells containing reaction mixture, followed by reincubation for 60 minutes at RT. Reaction was terminated by addition of 10 mM of EDTA and detection reagent containing anti-phosphotheronine ATF2 antibody (PerkinElmer®, USA) labeled with europium chelate and APC (Allophycocyanin) labeled streptavidin, into the reaction mixture which was further incubated for 60 minutes at room temperature. The degree of phosphorylation of the substrate (GST-ATF2) was measured using Envision multimode reader (PerkinElmer®). Percentage inhibition of p38 kinase activity was calculated by determining ratio of specific europium 665 nm energy transfer signal to reference 615 nm signal.

T1 sequence (Q16539 whole entry): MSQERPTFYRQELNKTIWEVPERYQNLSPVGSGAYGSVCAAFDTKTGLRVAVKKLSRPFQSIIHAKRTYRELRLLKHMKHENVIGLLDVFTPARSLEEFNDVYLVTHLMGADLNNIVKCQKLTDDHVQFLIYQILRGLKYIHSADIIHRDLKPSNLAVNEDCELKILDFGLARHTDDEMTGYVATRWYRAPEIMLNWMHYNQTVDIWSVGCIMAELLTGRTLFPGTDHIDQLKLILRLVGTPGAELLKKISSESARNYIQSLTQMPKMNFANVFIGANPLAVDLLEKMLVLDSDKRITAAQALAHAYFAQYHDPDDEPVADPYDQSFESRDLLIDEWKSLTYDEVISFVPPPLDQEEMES

| SMILES | inhibition at 1 µM (Concentration 1 μM) [%] | other results |
| --- | --- | --- |
| Cc1ccc(-n2nc(C(C)(C)C)cc2NC(=O)Nc2cc(C)c(OCCN3CCn4c(nnc4-c4cc(Cl)ccc4O)C3)c3c2CCC3)cc1 [Compound 66, 1-[3-tert-butyl-1-(4-methylphenyl)-1H-pyrazol-5-yl]-3-(7-{2-[3-(5-chloro-2-hydroxyphenyl)-5,6-dihydro[1,2,4]triazolo[4,3-a]pyrazin-7(8H)-yl]ethoxy}-6-methyl-2,3-dihydro-1H-inden-4-yl)urea] | < 20 |  |
| CCCSc1ccccc1-c1nnc2n1CCN(CCOc1ccc(NC(=O)Nc3cc(C(C)(C)C)cc(NS(C)(=O)=O)c3OC)c3c1CCC3)C2 [Compound 42, N-[5-tert-butyl-2-methoxy-3-({[7-(2-{3-[2-(propylsulfanyl)phenyl]-5,6-dihydro[1,2,4]triazolo[4,3-a]pyrazin-7(8H)-yl}ethoxy)-2,3-dihydro-1H-inden-4-yl]carbamoyl}amino)phenyl]methanesulfonamide] | 80 to 100 |  |
| CC(C)(C)c1cc(NC(=O)Nc2ccc(OCCN3CCn4c(nnc4-c4ccccc4O)C3)c3c2CCC3)n(-c2ccc(O)c(Cl)c2)n1 [Compound 26, 1-[3-tert-butyl-1-(3-chloro-4-hydroxyphenyl)-1H-pyrazol-5-yl]-3-(7-{2-[3-(2-hydroxyphenyl)-5,6-dihydro[1,2,4]triazolo[4,3-a]pyrazin-7(8H)-yl]ethoxy}-2,3-dihydro-1H-inden-4-yl)urea] | 80 to 100 |  |
| CSc1ccccc1-c1nnc2n1CCN(CCOc1ccc(NC(=O)Nc3cc(C(C)(C)C)nn3-c3ccc(C)cc3)c3c1CCC3)C2 [Compound 13, 1-[3-tert-butyl-1-(4-methylphenyl)-1H-pyrazol-5-yl]-3-[7-(2-{3-[2-(methylsulfanyl)phenyl]-5,6-dihydro[1,2,4]triazolo[4,3-a]pyrazin-7(8H)-yl}ethoxy)-2,3-dihydro-1H-inden-4-yl]urea] | 80 to 100 |  |
| Cc1ccc(-n2nc(C(C)(C)C)cc2NC(=O)Nc2ccc(OCCN3CCn4c(nnc4-c4oc5ccccc5c4C)C3)c3c2CCC3)cc1 [Compound 69, 1-[3-tert-butyl-1-(4-methylphenyl)-1H-pyrazol-5-yl]-3-(7-{2-[3-(3-methyl-1-benzofuran-2-yl)-5,6-dihydro[1,2,4]triazolo[4,3-a]pyrazin-7(8H)-yl]ethoxy}-2,3-dihydro-1H-inden-4-yl)urea] | 40 to 60 |  |
| CC(C)(C)c1cc(NC(=O)Nc2ccc(OCCN3CCn4c(nnc4-c4ccc(O)cc4O)C3)c3c2CCC3)n(-c2ccc(O)c(Cl)c2)n1 [Compound 63, 1-[3-tert-butyl-1-(3-chloro-4-hydroxyphenyl)-1H-pyrazol-5-yl]-3-(7-{2-[3-(2,4-dihydroxyphenyl)-5,6-dihydro[1,2,4]triazolo[4,3-a]pyrazin-7(8H)-yl]ethoxy}-2,3-dihydro-1H-inden-4-yl)urea] |  | inhibition at 0.1 µM: 60 to 80% |
| COc1ccccc1-c1nnc2n1CCN(CCOc1ccc(NC(=O)Nc3cc(C(C)(C)C)nn3-c3ccc(C)cc3)c3c1CCC3)C2 [Compound 14, 1-[3-tert-butyl-1-(4-methylphenyl)-1H-pyrazol-5-yl]-3-(7-{2-[3-(2-methoxyphenyl)-5,6-dihydro[1,2,4]triazolo[4,3-a]pyrazin-7(8H)-yl]ethoxy}-2,3-dihydro-1H-inden-4-yl)urea] | 80 to 100 |  |
| Cc1ccc(-n2nc(C(C)(C)C)cc2NC(=O)Nc2ccc(OCCN3CCN(c4ccccc4)C(=O)C3)c3c2CCC3)cc1 [Compound 19, 1-[3-tert-butyl-1-(4-methylphenyl)-1H-pyrazol-5-yl]-3-{7-[2-(3-oxo-4-phenylpiperazin-1-yl)ethoxy]-2,3-dihydro-1H-inden-4-yl}urea] | 80 to 100 |  |
| CCCOc1ccccc1-c1nnc2n1CCN(CCOc1ccc(NC(=O)Nc3cc(C(C)(C)C)nn3-c3ccc(O)c(Cl)c3)c3c1CCC3)C2 [Compound 27, 1-[3-tert-butyl-1-(3-chloro-4-hydroxyphenyl)-1H-pyrazol-5-yl]-3-(7-{2-[3-(2-propoxyphenyl)-5,6-dihydro[1,2,4]triazolo[4,3-a]pyrazin-7(8H)-yl]ethoxy}-2,3-dihydro-1H-inden-4-yl)urea] | 80 to 100 |  |
| CC(C)(C)c1ccc(-n2nc(C(C)(C)C)cc2NC(=O)Nc2ccc(OCC(=O)N3CCn4c(nnc4C(F)(F)F)C3)c3c2CCC3)cc1 [Compound 2, 1-[3-tert-butyl-1-(4-tert-butylphenyl)-1H-pyrazol-5-yl]-3-(7-{2-oxo-2-[3-(trifluoromethyl)-5,6-dihydro[1,2,4]triazolo[4,3-a]pyrazin-7(8H)-yl]ethoxy}-2,3-dihydro-1H-inden-4-yl)urea] | 20 to 40 |  |
| CCCSc1ccccc1-c1nnc2n1CCN(CCOc1ccc(NC(=O)Nc3cc(C(C)(C)C)cc(NS(=O)(=O)CC)c3OC)c3c1CCC3)C2 [Compound 50, N-[5-tert-butyl-2-methoxy-3-({[7-(2-{3-[2-(propylsulfanyl)phenyl]-5,6-dihydro[1,2,4]triazolo[4,3-a]pyrazin-7(8H)-yl}ethoxy)-2,3-dihydro-lH-inden-4-yl]carbamoyl}amino)phenyl] ethanesulfonamide] |  | P38α Inhibition (Concentration 1 μM): +++++ (+++++ = Inhibition ≥80% ≥ 100%) |
| Cc1ccc(-n2nc(C(C)(C)C)cc2NC(=O)Nc2ccc(OCCCN3CCN(CC4CC4)C(=O)C3)c3c2CCC3)cc1 [Compound 28, 1-[3-tert-butyl-1-(4-methylphenyl)-1H-pyrazol-5-yl]-3-(7-{3-[4-(cyclopropylmethyl)-3-oxopiperazin-1-yl]propoxy}-2,3-dihydro-1H-inden-4-yl)urea] | 80 to 100 |  |
| CCS(=O)(=O)Nc1cc(C(C)(C)C)cc(NC(=O)Nc2ccc(OCCN3CCn4c(nnc4-c4ccccc4SC)C3)c3c2CCC3)c1OC [Compound 45, N-[5-tert-butyl-2-methoxy-3-({[7-(2-{3-[2-(methylsulfanyl)phenyl]-5,6-dihydro[1,2,4]triazolo[4,3-a]pyrazin-7(8H)-yl}ethoxy)-2,3-dihydro-1H-inden-4-yl]carbamoyl}amino)phenyl]ethanesulfonamide] |  | inhibition at 0.1 µM: 80 to 100% |

Now from value to molecule, other results behind:

| inhibition at 1 µM (Concentration 1 μM) [%] | SMILES | other results |
| --- | --- | --- |
| 80 to 100 | Cc1ccc(-n2nc(C(C)(C)C)cc2NC(=O)Nc2ccc(OCCN3CCN(CC4CCC4)C(=O)C3)c3c2CCC3)cc1 [Compound 22, 1-[3-tert-butyl-1-(4-methylphenyl)-1H-pyrazol-5-yl]-3-(7-{2-[4-(cyclobutylmethyl)-3-oxopiperazin-1-yl]ethoxy}-2,3-dihydro-1H-inden-4-yl)urea] |  |
| 80 to 100 | Cc1ccc(-n2nc(C(C)(C)C)cc2NC(=O)Nc2ccc(OCCN3CCn4c(nnc4-c4ccc(O)cc4)C3)c3c2CCC3)cc1 [Compound 34, 1-[3-tert-butyl-1-(4-methylphenyl)-1H-pyrazol-5-yl]-3-(7-{2-[3-(4-hydroxyphenyl)-5,6-dihydro[1,2,4]triazolo[4,3-a]pyrazin-7(8H)-yl]ethoxy}-2,3-dihydro-1H-inden-4-yl)urea] |  |
| 40 to 60 | Cc1ccccc1-n1nc(C(C)(C)C)cc1NC(=O)Nc1ccc(OCCN2CCN(CC3CC3)C(=O)C2)c2c1CCC2 [Compound 62, 1-[3-tert-butyl-1-(2-methylphenyl)-1H-pyrazol-5-yl]-3-(7-{2-[4-(cyclopropylmethyl)-3-oxopiperazin-1-yl]ethoxy}-2,3-dihydro-1H-inden-4-yl)urea] |  |
| 60 to 80 | COc1ccc(-n2nc(C(C)(C)C)cc2NC(=O)Nc2ccc(OCCN3CCN(CC4CC4)C(=O)C3)c3c2CCC3)cc1 [Compound 17, 1-[3-tert-butyl-1-(4-methoxyphenyl)-1H-pyrazol-5-yl]-3-(7-{2-[4-(cyclopropylmethyl)-3-oxopiperazin-1-yl]ethoxy}-2,3-dihydro-1H-inden-4-yl)urea] |  |
| 40 to 60 | Cc1ccc(-n2nc(C(C)(C)C)cc2NC(=O)Nc2ccc(OCCN3CCn4c(nnc4C4CCCCC4)C3)c3c2CCC3)cc1 [Compound 68, 1-[3-tert-butyl-1-(4-methylphenyl)-1H-pyrazol-5-yl]-3-{7-[2-(3-cyclohexyl-5,6-dihydro[1,2,4]triazolo[4,3-a]pyrazin-7(8H)-yl)ethoxy]-2,3-dihydro-1H-inden-4-yl}urea] |  |
| 80 to 100 | CCc1ccc(-n2nc(C(C)(C)C)cc2NC(=O)Nc2ccc(OCCN3CCn4c(nnc4-c4ccccc4OC)C3)c3c2CCC3)cc1 [Compound 23, 1-[3-tert-butyl-1-(4-ethylphenyl)-1H-pyrazol-5-yl]-3-(7-{2-[3-(2-methoxyphenyl)-5,6-dihydro[1,2,4]triazolo[4,3-a]pyrazin-7(8H)-yl]ethoxy}-2,3-dihydro-1H-inden-4-yl)urea] |  |
| 80 to 100 | Cc1ccc(-n2nc(C(C)(C)C)cc2NC(=O)Nc2ccc(OCCN3CCn4c(nnc4-c4ccccc4OCCO)C3)c3c2CCC3)cc1 [Compound 30, 1-[3-tert-butyl-1-(4-methylphenyl)-1H-pyrazol-5-yl]-3-[7-(2-{3-[2-(2-hydroxyethoxy)phenyl]-5,6-dihydro[1,2,4]triazolo[4,3-a]pyrazin-7(8H)-yl}ethoxy)-2,3-dihydro-1H-inden-4-yl]urea] |  |
| 40 to 60 | COc1c(NC(=O)Nc2cc(C)c(OCCN3CCn4c(nnc4-c4cc(Cl)ccc4O)C3)c3c2CCC3)cc(C(C)(C)C)cc1NS(C)(=O)=O [Compound 73, N-(5-tert-butyl-3-{[(7-{2-[3-(5-chloro-2-hydroxyphenyl)-5,6-dihydro[1,2,4]triazolo[4,3-a]pyrazin-7(8H)-yl]ethoxy}-6-methyl-2,3-dihydro-1H-inden-4-yl)carbamoyl]amino}-2-methoxyphenyl)methanesulfonamide] |  |
